According to patent publication US20240139221A1, “TREATMENT OF HPV-INDUCED NEOPLASIA” (priority 2022, published 2024):

Assays:
[1] = Ex vivo permeation and penetration across porcine vaginal tissue (Franz diffusion cells, IVPT); assay type: in vitro ADME; settings: FIG. 116
From the text: (§1) FIG. 116 is an in vitro tissue permeation test in vaginal tissue comparing Compound II to ABI-1968. […] Bars B and C show the tissue penetration of a 0.1% Compound II gel in human cervical tissue. […] This may be a contributing factor to the performance of ABI-1968 in clinical studies. […] This is described in Example 41.
Freshly harvested porcine vaginal tissue was procured from local slaughterhouse in an ice box. The vaginal tissue was cut open to expose the mucosal surface and tissue was cleaned by gentle flow of PBS pH 7.4. The porcine vaginal tissue was cut into circular portions (approximately 2 cm^2) with help of a […] punch.
The circular portion of tissue was sandwiched between two chambers of a Franz diffusion cell with an active diffusion area of 1 cm^2, and the mucosal layer was exposed to the donor chambers. The resistance across porcine vaginal tissue was measured using a wave form generator to ensure the integrity of the tissue segment used for the permeation study. Porcine vaginal tissue with resistance of ≥3 KΩ·cm^2 was used for study. The receiver chamber was filled with 8 ml of 5% solutol PBS 7.4 pH, which was stirred at 600 rpm with a 3 mm magnetic stir bar and the temperature was maintained at 37° C. with a circulating water bath.
The ˜200 mg of gel was filled into tared 1 mL syringe and gel was dispensed to donor chamber. […]

[2] = Solubility in buffers, water and simulated vaginal fluid at 37° C.; settings: for solubility / solubility at 0.5 h / solubility at 2 h: 37 °C, thermodynamic from solid; for pH of solution, 2 hours / Solubility 2 hours: 37° C.; for Solubility 2 hours: target 10 mg/5 mL
Method: About 4 mg of Compound I Pattern 1 was added into 2 mL of buffer solution.
(§2) Solubility was tested in five media, pH 3.0 citrate buffer, pH 4.5 acetate buffer, pH 6.8 phosphate buffer, water, simulated vaginal fluid (pH 4.2) at 37° C. for 0.5 h and 2 h.
The salt amount used is equivalent to 10 mg anhydrous free base. […] The obtained clear solutions were analyzed by pH meter for pH, and solubility was determined by observation.
as §2

[3] = In vitro tissue permeation test in human cervical tissue; assay type: in vitro ADME; settings: 0.1% gel, FIG. 116
From the text: as §1

[4] = Hygroscopicity by DVS at 25° C.; assay type: physicochemical; settings: for Hygroscopicity (in words): DVS 25° C.; for XRPD after DVS test: after 40-0-95-0-40% RH cycle, 25° C.
Method: Hygroscopicity was investigated by DVS at 25° C., using the following method: […]

[5] = Polymorph screening by equilibration in solvents at 25° C. (crystal modification, XRPD); assay type: physicochemical
[6] = Bulk stability (accelerated stability, one week; HPLC and XRPD); settings: for physical and chemical stability (in words): 25° C./92% RH open, 40° C./75% RH open, 60° C. tight container, one week; for Bulk (XRPD) / Color / Purity, Bulk (HPLC): Solid state, 1 week; for Initial HPLC purity: before storage
Method: Bulk stability: Accelerated stability experiments were conducted at 25° C./92% RH and 40° C./75% RH in an open container, 60° C. in a tight container for one week.
Samples were characterized by XRPD and HPLC and inspected for color change.
Accelerated stability experiments were conducted at 25° C./92% RH in an open container, at 40° C./75% RH in an open container, and at 60° C. in a tight container for one week.

[7] = pH 4.2, fassgf or other biorelevant
[8] = Simulated vaginal fluid (pH adjusted by 0.1N NaOH)
[9] = cycle of 40-0-95-0-45% relative humidity
[10] = PS7, solvent IPA/heptanes (3/10, v/v)
[11] = PS8, solvent water/ACN (2.9/97.1, v/v)
[12] = PS9, solvent IPA/MTBE (1/3, v/v)
[13] = PS10, solvent EA/toluene (1/3, v/v)

SMILES: CCCCCCCCCCCCCCCCCCOCCOP(=O)(O)COCCn1cnc2c(=O)[nH]c(N)nc21 [ABI-1968, reference compound]
- tissue penetration (in words) [1]: substantially smaller degree

SMILES: CCOC(=O)[C@H](C)N[P@@](=O)(COCCn1cnc2c(OC)nc(N)nc21)OCc1ccccc1.O=C(O)/C=C/C(=O)O [Compound II]
- solubility ([2]; aqueous buffer): > 2000 µg/mL
- solubility at 0.5 h ([2]; pH 3, aqueous buffer): > 2000 µg/mL
- solubility at 2 h ([2]; pH 3, aqueous buffer): > 2000 µg/mL
- solubility at 0.5 h [2, 7]: > 2000 µg/mL
- solubility at 2 h [2, 7]: > 2000 µg/mL
- solubility at 0.5 h ([2]; pH 4.5, aqueous buffer): > 2000 µg/mL
- solubility at 2 h ([2]; pH 4.5, aqueous buffer): > 2000 µg/mL
- solubility at 0.5 h ([2]; pH 6.8, aqueous buffer): > 2000 µg/mL
- solubility at 2 h ([2]; pH 6.8, aqueous buffer): > 2000 µg/mL
- solubility at 0.5 h ([2]; water): > 2000 µg/mL
- solubility at 2 h ([2]; water): > 2000 µg/mL
- pH of solution, 2 hours [2, 8]: (5.79)
- pH of solution, 2 hours ([2]; Water): (2.87)
- pH of solution, 2 hours ([2]; pH 3.0, 100 mM citrate buffer): (2.85)
- pH of solution, 2 hours ([2]; pH 4.5, 50 mM acetate buffer): (4.2)
- pH of solution, 2 hours ([2]; pH 6.8, 50 mM phosphate buffer): (6.47)
- tissue penetration (in words) [3]: high tissue penetration
- Hygroscopicity (in words) [4]: slightly hygroscopic
- XRPD after DVS test [4]: No form change
- XRPD pattern after humidity cycle [4, 9]: does not change
- tissue penetration (in words) [1]: high tissue penetration
- Crystal modification after 1 week equilibration at 25° C. ([5]; PS1, solvent IPA): Compound II Pattern 1
- Crystal modification after 1 week equilibration at 25° C. ([5]; PS2, solvent Heptanes): Compound II Pattern 1
- Crystal modification after 1 week equilibration at 25° C. ([5]; PS3, solvent Water): Compound II Pattern 1
- Crystal modification after 1 week equilibration at 25° C. ([5]; PS4, solvent ACN): Compound II Pattern 2
- Crystal modification after 1 week equilibration at 25° C. ([5]; PS5, solvent MEK): Compound II Pattern 3
- Crystal modification after 1 week equilibration at 25° C. ([5]; PS6, solvent Acetone): Compound II Pattern 1
- Crystal modification after 1 week equilibration at 25° C. [5, 10]: Compound II Pattern 1
- Crystal modification after 1 week equilibration at 25° C. [5, 11]: Compound II Pattern 2
- Crystal modification after 1 week equilibration at 25° C. [5, 12]: Compound II Pattern 1
- Crystal modification after 1 week equilibration at 25° C. [5, 13]: Compound II Pattern 1
- physical and chemical stability (in words) [6]: good physical and chemical stability
- Bulk (XRPD) ([6]; 25° C./92% RH, open container): No form change
- Color ([6]; 25° C./92% RH, open container): No change
- Purity, Bulk (HPLC) ([6]; 25° C./92% RH, open container): 99.5%
- Bulk (XRPD) ([6]; 40° C./75% RH, open container): No form change
- Color ([6]; 40° C./75% RH, open container): No change
- Purity, Bulk (HPLC) ([6]; 40° C./75% RH, open container): 99.4%
- Bulk (XRPD) ([6]; 60° C., tight container): No form change
- Color ([6]; 60° C., tight container): No change
- Purity, Bulk (HPLC) ([6]; 60° C., tight container): 99.7%
- Initial HPLC purity [6]: 99.7%

SMILES: CCOC(=O)[C@H](C)N[P@](=O)(COCCn1cnc2c(OC)nc(N)nc21)OCc1ccccc1 (single isomer, unassigned) [Compound III, monofumarate]
- solubility ([2]; aqueous buffer): > 2000 µg/mL
- solubility ([2]; pH 3, aqueous buffer): > 2000 µg/mL
- solubility [2, 7]: > 2000 µg/mL
- solubility ([2]; pH 4.5, aqueous buffer): > 2000 µg/mL
- solubility ([2]; pH 6.8, aqueous buffer): > 2000 µg/mL
- solubility ([2]; water): > 2000 µg/mL
- pH of solution, 2 hours [2, 8]: 5.37
- Solubility 2 hours [2, 8]: > 2000 µg/mL
- pH of solution, 2 hours ([2]; Water): 2.78
- Solubility 2 hours ([2]; Water): > 2000 µg/mL
- pH of solution, 2 hours ([2]; pH 3.0, 100 mM citrate buffer): 2.83
- Solubility 2 hours ([2]; pH 3.0, 100 mM citrate buffer): > 2000 µg/mL
- pH of solution, 2 hours ([2]; pH 4.5, 50 mM acetate buffer): 4.12
- Solubility 2 hours ([2]; pH 4.5, 50 mM acetate buffer): > 2000 µg/mL
- pH of solution, 2 hours ([2]; pH 6.8, 50 mM phosphate buffer): 6.44
- Solubility 2 hours ([2]; pH 6.8, 50 mM phosphate buffer): > 2000 µg/mL
- Hygroscopicity (in words) [4]: slightly hygroscopic
- XRPD after DVS test [4]: No form change
- XRPD pattern after humidity cycle [4, 9]: lose one of the peaks
- increase in retained water content versus Compound II [4, 9]: 40 fold
- Crystal modification after 1 week equilibration at 25° C. ([5]; PS1, solvent IPA): Compound V Pattern 2
- Crystal modification after 1 week equilibration at 25° C. ([5]; PS2, solvent Heptanes): Compound III Pattern 2
- Crystal modification after 1 week equilibration at 25° C. ([5]; PS3, solvent Water): Compound III Pattern 3
- Crystal modification after 1 week equilibration at 25° C. ([5]; PS4, solvent ACN): Compound III Pattern 4
- Crystal modification after 1 week equilibration at 25° C. ([5]; PS5, solvent MEK): Compound III Pattern 5
- Crystal modification after 1 week equilibration at 25° C. [5, 10]: Compound III Pattern 2
- Crystal modification after 1 week equilibration at 25° C. [5, 11]: Compound III Pattern 4
- Crystal modification after 1 week equilibration at 25° C. [5, 12]: Compound III Pattern 6
- Crystal modification after 1 week equilibration at 25° C. [5, 13]: Compound III Pattern 2
- physical and chemical stability (in words) [6]: good physical stability
- Bulk (XRPD) ([6]; 25° C./92% RH, open container): No form change
- Color ([6]; 25° C./92% RH, open container): No change
- Purity, Bulk (HPLC) ([6]; 25° C./92% RH, open container): 98.7%
- Bulk (XRPD) ([6]; 40° C./75% RH, open container): No form change (One
- Color ([6]; 40° C./75% RH, open container): No change
- Purity, Bulk (HPLC) ([6]; 40° C./75% RH, open container): 97.2%
- Bulk (XRPD) ([6]; 60° C., tight container): No form change (One
- Color ([6]; 60° C., tight container): No change
- Purity, Bulk (HPLC) ([6]; 60° C., tight container): 97.3%
- Initial HPLC purity [6]: 98.8%
